This is an account of results in patent US20130190407A1, “CALCIUM RECEPTOR-ACTIVE MOLECULES” (NPS Pharmaceuticals, Inc., priority 1991, published 2013).

The target of experiment [1] is T1, parathyroid cell calcium receptor (Bos taurus, UniProt P35384).
T1 sequence (P35384 20-1085): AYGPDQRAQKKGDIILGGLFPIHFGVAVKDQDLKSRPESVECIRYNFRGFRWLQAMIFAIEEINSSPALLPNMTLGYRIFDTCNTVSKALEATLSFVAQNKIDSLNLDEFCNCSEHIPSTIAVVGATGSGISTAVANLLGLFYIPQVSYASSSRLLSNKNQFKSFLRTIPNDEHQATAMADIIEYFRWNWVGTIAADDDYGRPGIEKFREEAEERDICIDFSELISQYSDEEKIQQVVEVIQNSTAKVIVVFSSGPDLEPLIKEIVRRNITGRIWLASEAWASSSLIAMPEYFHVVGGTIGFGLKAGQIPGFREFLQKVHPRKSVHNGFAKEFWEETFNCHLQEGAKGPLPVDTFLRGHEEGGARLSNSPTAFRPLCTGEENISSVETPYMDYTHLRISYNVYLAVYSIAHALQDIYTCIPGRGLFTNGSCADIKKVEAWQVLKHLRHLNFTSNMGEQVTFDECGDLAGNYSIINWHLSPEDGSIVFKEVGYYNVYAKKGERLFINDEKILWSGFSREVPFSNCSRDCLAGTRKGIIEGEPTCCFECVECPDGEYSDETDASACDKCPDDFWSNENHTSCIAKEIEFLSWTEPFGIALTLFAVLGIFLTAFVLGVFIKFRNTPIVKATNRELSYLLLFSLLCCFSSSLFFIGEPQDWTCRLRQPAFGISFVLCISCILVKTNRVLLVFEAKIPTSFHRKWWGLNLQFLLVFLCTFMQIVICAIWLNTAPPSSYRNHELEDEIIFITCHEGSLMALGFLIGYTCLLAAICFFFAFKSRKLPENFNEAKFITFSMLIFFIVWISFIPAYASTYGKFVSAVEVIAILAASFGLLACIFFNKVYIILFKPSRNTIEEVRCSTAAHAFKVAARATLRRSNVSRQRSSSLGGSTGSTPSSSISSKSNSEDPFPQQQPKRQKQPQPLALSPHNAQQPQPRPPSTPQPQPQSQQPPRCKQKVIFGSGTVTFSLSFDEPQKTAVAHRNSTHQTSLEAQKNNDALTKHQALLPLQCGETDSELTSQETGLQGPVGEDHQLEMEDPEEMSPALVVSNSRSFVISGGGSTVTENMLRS
In words: Cl- current in Xenopus oocytes injected with bovine parathyroid cell poly(A)+-mRNA. In kind it is cell-based. More on the design: Whole pieces of gland were used to prepare mRNA that directs the expression of the calcium receptor in Xenopus oocytes; expressed in transfected cells; host or cells: Xenopus laevis oocytes injected with total poly(A)+ mRNA from bovine parathyroid glands. As to conditions: 30 μM. As to the method:
Following incubation, an oocyte was placed into a 100-μl plastic chamber and superfused with MBS at a flow rate of 0.5 ml/min using a peristaltic pump. Test molecules or inorganic polycations were added by rapidly moving the tubing into different buffers. Recording and current-passing electrodes were constructed from thin-wall capillary tubing pulled to a resistance of 1-3 Mohms and filled with 3 M KCl. […] Currents were recorded directly onto a strip chart recorder.
Dissociated bovine parathyroid cells were used to further explore the mechanism of action of NPS R-467 at the receptor level. […] It does, however, elicit responses in parathyroid cells and in oocytes when a small amount of extracellular Ca^2+ is present.

The target in experiment [2] is T2, human parathyroid cell calcium receptor (Homo sapiens, UniProt P41180, E1011Q/Q926R).
T2 construct: appear to be full-length clones corresponding to the 5 Kb mRNA; expressed in transfected cells; host or cells: Xenopus laevis oocytes injected with pHuPCaR 5.2
T2 sequence (P41180 20-1088 isoform P41180-2 Q936R/E1021Q): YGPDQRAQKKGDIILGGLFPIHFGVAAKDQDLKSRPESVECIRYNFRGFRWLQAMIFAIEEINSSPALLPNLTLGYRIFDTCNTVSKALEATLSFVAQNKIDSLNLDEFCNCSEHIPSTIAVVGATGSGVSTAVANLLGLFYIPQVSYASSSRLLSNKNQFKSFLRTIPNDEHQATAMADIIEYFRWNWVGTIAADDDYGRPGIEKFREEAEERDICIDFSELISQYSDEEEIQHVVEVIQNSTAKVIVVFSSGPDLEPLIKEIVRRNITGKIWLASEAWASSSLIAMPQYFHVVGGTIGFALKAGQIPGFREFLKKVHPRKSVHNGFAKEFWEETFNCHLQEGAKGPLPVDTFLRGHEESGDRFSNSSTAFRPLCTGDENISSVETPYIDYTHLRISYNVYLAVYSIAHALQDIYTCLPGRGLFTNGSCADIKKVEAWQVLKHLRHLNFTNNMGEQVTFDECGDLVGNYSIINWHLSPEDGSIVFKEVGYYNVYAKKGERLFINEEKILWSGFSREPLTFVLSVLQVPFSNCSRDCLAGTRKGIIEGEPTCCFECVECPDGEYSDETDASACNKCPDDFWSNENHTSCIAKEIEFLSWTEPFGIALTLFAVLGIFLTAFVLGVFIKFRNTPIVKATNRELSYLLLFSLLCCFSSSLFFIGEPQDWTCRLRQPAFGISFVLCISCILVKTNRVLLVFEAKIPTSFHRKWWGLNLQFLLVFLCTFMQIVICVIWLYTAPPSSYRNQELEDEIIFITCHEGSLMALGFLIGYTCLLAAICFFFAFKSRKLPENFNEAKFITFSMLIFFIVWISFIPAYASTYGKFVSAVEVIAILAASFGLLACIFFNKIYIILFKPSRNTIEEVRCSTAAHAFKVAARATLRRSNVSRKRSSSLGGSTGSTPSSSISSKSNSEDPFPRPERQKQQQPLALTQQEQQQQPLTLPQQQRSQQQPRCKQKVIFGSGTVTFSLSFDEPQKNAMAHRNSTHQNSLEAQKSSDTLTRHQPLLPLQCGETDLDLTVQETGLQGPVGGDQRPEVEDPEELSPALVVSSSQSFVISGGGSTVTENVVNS
Briefly: Cl- current in Xenopus oocytes injected with pHuPCaR 5.2. In kind it is cell-based. As to conditions: 3 to 30 μM; 0.3 mM extracellular Ca2+. As to the method: Xenopus oocytes were injected with pHuPCaR 5.2, the 5.2 Kb cDNA encoding a parathyroid cell calcium receptor derived from a human parathyroid cell adenoma. (See Example 27.) After two to three days, Cl^− currents were measured in the oocytes using a two-electrode voltage clamp.

For experiment [3], the system named is healthy, post-menopausal person. Briefly: Placebo-controlled single-dose, dose-escalation study in a human. Format: in vivo. The source says:
A range of single oral doses was used to assess safety, tolerance, and changes in primary hyperparathyroidism markers (e.g., plasma concentrations of parathyroid hormone and ionized serum calcium) and of serum calcitonin.

Turning to `COc1cccc([C@@H](C)NCCCc2ccccc2)c1` (single isomer, unassigned) [NPS R-467], the Cl- current entry in experiment [1] was “rapid increase in Cl^− current”.

With `COc1cccc([C@@H](C)NCCCc2ccccc2Cl)c1` [NPS R-568, (R)-(+)-N-[3-(2-chlorophenyl)propyl]-α-methyl-3-methoxybenzylamine], the Cl- current entry in experiment [2] is on record as “evoked increases in the Cl^− current”. Also, the “Serum PTH” value in experiment [3] (20 mg single oral dose, 1 h) amounted to 18 pg/mL; in experiment [3] (240 mg single oral dose, 0.5 h), 18 pg/mL. Also, in experiment [3] (at higher doses), the “serum ionized calcium concentration” value is listed as “decrease in serum ionized calcium concentration”. The serum calcitonin entry in experiment [3] (at the doses studied) was “no apparent change in serum calcitonin”. In addition, the “plasma PTH concentration” value in experiment [3] (single oral doses) was “transient dose-dependent decrease in plasma PTH concentration”.
